# According to ChEMBL document CHEMBL5104153, “De novo design of type II topoisomerase inhibitors as potential antimicrobial agents targeting a novel binding region” (RSC Med Chem, 2022):
# What was measured:
# [1] = Inhibition of Escherichia coli topoisomerase 4 assessed as relaxation of supercoiled plasmid pBR322 DNA and measured after 30 mins
# DNA gyrase = DNA gyrase (Escherichia coli, UniProt P0AES4+P0AES6); test: Inhibition of Escherichia coli DNA gyrase supercoiling activity using pBR322 as substrate incubated for 30 mins measured by gel-based assay; assay type: protein-complex assay
# Escherichia coli = test: Antibacterial activity against Escherichia coli measured by broth microdilution assay
# Staphylococcus aureus = test: Antibacterial activity against Staphylococcus aureus measured by broth microdilution assay
IC50 [1] [µM],Compound,IC50 (DNA gyrase) [µM],MIC (Escherichia coli) [µg/mL],MIC (Staphylococcus aureus) [µg/mL]
> 100,CCOc1cccc(-c2cccc(C(=O)N[C@@H](CN)c3ccccc3)c2)c1F,–,–,–
> 100,NC[C@H](NC(=O)c1cccc(-c2ccccc2C(F)(F)F)c1)c1ccccc1,–,–,–
> 100,COc1ccccc1-c1cccc(C(=O)NC(CN)c2cccc(O)c2)c1 (configuration not stated),–,–,–

Compound,IC50 [1] [µM],IC50 (DNA gyrase) [µM],MIC (Escherichia coli) [µg/mL],MIC (Staphylococcus aureus) [µg/mL]
Cl.NCC(NC(=O)c1cccc(-c2cccs2)c1)c1ccc(O)cc1 (configuration not stated),> 540,0.3,8,8
